Test results published in US20110212235A1, “ANTIMICROBIAL SALT SOLUTIONS FOR CHEESE PROCESSING APPLICATIONS” (priority 2006, published 2011).

Legend:
L. monocytogenes [1] = test: L. monocytogenes kill in cold salt/acid/surfactant solutions; type: cell-based
Description: To study chilling brine application of the current embodiment, tests were run on 17% by weight solutions of formulas consisting of between 0.3% and 6.0% citric acid, between 50 and 500 ppm SLS, and between 94% and 99.7% sodium chloride. Test solutions were cooled to −7° C. and inoculated with several strains of L. monocytogenes.
An experiment was run to determine if solutions containing sodium chloride, sodium lauryl sulfate, and various acids would kill L. monocytogenes at cold temperatures. […] A 1.0 ml aliquot of this suspension was added to 100 ml of cold (−7° C.+2° C.) test solution and mixed well, providing an initial inoculum of 10^3 CFU/ml. The test solutions were incubated at −7° C.+/−2° C. for the duration of the experiment. At intervals of 0, 4, and 24 hours the L. monocytogenes populations in the test solutions were determined on Modified Oxford agar (MOX). MOX plates were incubated at 35° C.+/−2° C. for approximately 48 hours. Colonies were then counted and compared to the initial inoculum counts.
Each test solution was a 17% by weight solution of the listed formula prepared in soft water.
In another experiment, 17% by weight solutions of formulas containing various levels of sodium chloride, citric acid, and sodium lauryl sulfate were tested for effectiveness in killing L. monocytogenes at cold temperatures. The same test procedure was used as described above, except test solutions were plated on MOX with a Thin Agar Overlay of TSA (to aid in the recovery of injured cells).
In another experiment, two sets of solutions were tested. The first set (samples 1-12 in Table 10 below) was prepared in hard tap water and contained about 17.0% by mass of the formulation. These samples were inoculated with 10^3 CFU/ml L. monocytogenes by the same procedure as described above. A second set of samples was prepared from brine taken from a ready-to-eat meat processing operation. The recirculated brine had been used to chill packaged meat for one week. After a week of use the brine typically contains various types of aerobic psychotropic and mesophilic bacteria. This experiment was done in order to determine if the additives would kill the microorganisms naturally occurring in actual process brine from a plant. Since the spent chill brine samples already contained NaCl citric acid and/or SLS was added to provide an effective concentration of additive. One set of these samples (samples 13-17) were inoculated with 10^3 L. monocytogenes and the other set (samples 18-22) contained only the naturally occurring organisms in the spent chill brine. […] Other antimicrobials, such as quaternary ammonium compounds can lose significant activity in hard water, often necessitating further additives, such as EDTA as a chelating agent, to maintain antimicrobial activity.
Another set of experiments was done in order to determine the effectiveness of different acids and different types of surfactants in the antimicrobial salt formulations. In one experiment, test solutions containing ˜17% by weight of formulas containing various levels of sodium chloride, 100 ppm sodium lauryl sulfate, and various levels of different acids were tested for effectiveness in killing L. monocytogenes at cold temperatures. The same test procedure was used as described above (test solutions were plated on MOX TAL (Modified Oxford Medium with a Thin Agar Layer) with TSA). The controls were a solution of pure NaCl, a solution of a blend of 100 ppm SLS in NaCl, and a solution of a blend of 0.5% citric acid, 100 ppm SLS, and 99.5% NaCl.

[2] = pH and water activity of test solutions; type: physicochemical
L. monocytogenes [3] = test: L. monocytogenes challenge in hot dog plant chill brine at −20° C.; type: cell-based
Description: 1. Inoculate a separate tube containing approximately 10 ml of Brain Heart infusion (BHI) broth with the following L. monocytogenes strains: H2446 (CDC Global Standard), Scott A (serotype 4b), 12243 (serotype 1/2a), and two strains isolated from the environment of a cooked meat and poultry facility, designated WP1, and WP4. Incubate the tubes at least 5 days at 7-10° C.+/−2° C. 2. Assume the growth to be 10^9 cfu/ml. Serially dilute each culture in cold (˜7° C.). Butterfield's Phosphate Buffered Water (PBW) to 10^8 cfu/ml (1:10). Since five cultures of L. monocytogenes are being used as a cocktail, begin the dilution series using […] of each culture added to 99 ml of PBW. 3. Plate (−6, −7, −8) the diluted culture to get the starting count of the inoculum on Modified Oxford medium (MOX) using a thin agar overlay (TAL) technique (overlay with Trypticase Soy Agar [TSA]) to revive injured cells. 4. Add 1 ml of the diluted cocktail to 100 ml of cold test solution. 5. Mix the solutions well. 6. Determine the L. monocytogenes population at time 0 and 4 hours. Plate −1 (0.1 ml on 1 plate), −2, −3, and −4 dilutions using spread plates on MOX TAL with TSA. 7. Incubate the test solutions at test temperature for the duration of the experiment. 8. Incubate the MOX TAL with TSA plates at 20° C.+/−2° C. for 72+/−3 hours. Count representative colonies, which are black, and multiply by the dilution factor. […]

[4] = 17% by weight solution in soft water, −7° C., MOX
[5] = 17% by weight solution, −6.7° C., MOX with thin agar overlay
[6] = 17% by weight solution of the formula in soft water, Table 8

With `[Cl-].[Na+]` [100% NaCl, sodium chloride, reference compound] as the molecule, how does the “L. monocytogenes, 24” value (L. monocytogenes [1]; 24, about 17.0% of formulation in hard tap water) read?
Its value is 1100 cfu/ml.

What about the “L. monocytogenes, 2 hr” value (L. monocytogenes [1]; 2 hr, about 17.0% of formulation in hard tap water) of the same molecule?
Its value is 1100 cfu/ml.

What about the “L. monocytogenes, 4 hr” value (L. monocytogenes [1]; [4]) of the same molecule?
The value was 1250 CFU/ml.

And the “L. monocytogenes, 4 hr” value (L. monocytogenes [1]; [5])?
The value was ~6250 CFU/ml.

What about the “L. monocytogenes, 24 hr” value (L. monocytogenes [1]; [4]) of the same molecule?
Its value is 1170 CFU/ml.

And the “L. monocytogenes, 24 hr” value (L. monocytogenes [1]; [5])?
Its value is 2290 CFU/ml.

And the “L. monocytogenes, Time 0” value (L. monocytogenes [1]; 17% by weight solution of the formula in soft water, −7° C., MOX)?
The value was 1550 CFU/ml.

And the “L. monocytogenes, Time 0” value (L. monocytogenes [1]; 17% by weight solution, −6.7° C., MOX with thin agar overlay of TSA)?
Its value is ~7000 CFU/ml.

And the “L. monocytogenes, Time 0” value (L. monocytogenes [1]; about 17.0% of formulation in hard tap water (27 gpg), inoculated 10^3 CFU/ml)?
The value was 760 cfu/ml.

What about the “Water Activity” value [2, 6] of the same molecule?
Its value is 0.88.

And the pH [2, 6]?
Its pH is 7.88.

What about the pH ([2]; 17% by weight solution of the formula, Table 9) of the same molecule?
Its pH is 7.66.

With alcohol ethoxylate as the molecule, how does the “effectiveness at lower concentration” value (L. monocytogenes [3]; 12.5 ppm in the hot dog plant brine) read?
Its value is “as effective as 50 ppm”.

What about the “kill of L. monocytogenes inoculum” value (L. monocytogenes [3]; 50 ppm, within 4 hours, −20° C., hot dog plant brine) of the same molecule?
Its value is ~5 log.

And the “L. monocytogenes, Time 4 Hours” value (L. monocytogenes [1]; 4 hours, 17% by weight of formula of 99.7% sodium chloride, 0.3% citric acid, 500 ppm of listed surfactant, cold)?
The value was 1 CFU/ml.

And the “L. monocytogenes, Time 0” value (L. monocytogenes [1]; 17% by weight of formula of 99.7% sodium chloride, 0.3% citric acid, 500 ppm of listed surfactant, cold)?
The value was 1080 CFU/ml.
